Among the data in patent US4272437A, “Antibacterial agents, and 4-thio azetidinone intermediates” (priority 1979, dated 1981) are MIC values, retold here.

≈ marks a conversion by molar mass, not a printed value. Read-outs that look alike come from different tables or passages of the source. Some results are limits rather than exact numbers.

Test [1] has as its system E. coli A-20341-1. Nature of the test: MIC, tube dilution, Escherichia coli A20341-1. To be noted: Escherichia coli, A203411; E. coli A20341-1; overnight 37° C.; read-out: Minimum Inhibitory Concentration (M.I.C.). It is filed as cell-based. The source says: (§1) Representative compounds of the present invention were subjected to in vitro antibiotic screening against a variety of microorganisms.

Test [2] deals with Ser. marcescens A-20019. In words: MIC, tube dilution, Serratia marcescens A20019. To be noted: Serratia marcescens, A20019, Serratia marcescens A20019; overnight 37° C.; read-out: Minimum Inhibitory Concentration (M.I.C.). It is filed as cell-based.
Description: as §1

Test [3] has as its system Klebsiella species A20468. Nature of the test: MIC, tube dilution, Klebsiella species A20468. It is filed as cell-based. The note with it: Klebsiella species (K. pneumoniae) A20468; overnight 37° C.; read-out: Minimum Inhibitory Concentration (M.I.C.).
Description: as §1

Test [4] relates to Pr. vulgaris A-9716. Nature of the test: MIC, tube dilution, Proteus vulgaris / Proteus mirabilis A9716. To be noted: Proteus vulgaris, overnight 37° C. It is filed as cell-based, Proteus vulgaris (name changed to Proteus mirabilis).
Description: as §1

The subject of test [5] is Ent. cloacae A-9659. Nature of the test: MIC, tube dilution, Enterobacter cloacae A9659. Format: cell-based. The note with it: Enterobacter cloacae, A9659, Enterobacter cloacae A9659; overnight 37° C.; read-out: Minimum Inhibitory Concentration (M.I.C.).
Description: as §1

Test [6] has as its system Pr. mirabilis A-9900. In words: MIC, tube dilution, Proteus mirabilis A9900. It is filed as cell-based. The note with it: Proteus mirabilis, A9900, Proteus mirabilis A9900; overnight 37° C.; read-out: Minimum Inhibitory Concentration (M.I.C.).
Description: as §1

Test [7] has as its system Staph. aureus A-9537 and 50% serum. Nature of the test: MIC, tube dilution, Staph. aureus A9537 + 50% serum. It is filed as cell-based, Staphylococcus aureus. To be noted: Staphylococcus aureus, overnight 37° C., read-out: Minimum Inhibitory Concentration (M.I.C.).
Description: as §1

Test [8] relates to Staph. aureus A-9537. Nature of the test: MIC, tube dilution, Staphylococcus aureus A9537. The note with it: Staphylococcus aureus, A9537, Staph. aureus A9537; overnight 37° C., Nutrient Broth; read-out: Minimum Inhibitory Concentration (M.I.C.). Format: cell-based.
Description: as §1

For test [9], the system named is E. coli A-15119. In words: MIC, tube dilution, Escherichia coli A15119. It is filed as cell-based. To be noted: Escherichia coli, A15119, E. coli A15119; overnight 37° C.; read-out: Minimum Inhibitory Concentration (M.I.C.).
Description: as §1

The test system of test [10] is Ps. aeruginosa A-9843A. In words: MIC, tube dilution, Pseudomonas aeruginosa A9843A. It is filed as cell-based. To be noted: Pseudomonas aeruginosa, A9843A, read-out: Minimum Inhibitory Concentration (M.I.C.), Pseudomonas aeruginosa A9843A; overnight 37° C.
Description: as §1

Test [11] relates to Ent. cloacae A-9656. Nature of the test: MIC, tube dilution, Enterobacter cloacae A9656. It is filed as cell-based. The note with it: overnight 37° C., read-out: Minimum Inhibitory Concentration (M.I.C.).
Description: as §1

Test [12] deals with Str. pneumoniae A-9585. In words: MIC, tube dilution, Streptococcus pneumoniae A9585. Format: cell-based. To be noted: Streptococcus pneumoniae, A9585, Str. pneumoniae A9585; overnight 37° C., Nutrient Broth; read-out: Minimum Inhibitory Concentration (M.I.C.).
Description: as §1

Test [13] deals with Ps. aeruginosa A-21213. Nature of the test: MIC, tube dilution, Pseudomonas aeruginosa A21213. It is filed as cell-based. To be noted: Pseudomonas aeruginosa A21213; overnight 37° C.; read-out: Minimum Inhibitory Concentration (M.I.C.).
Description: as §1

Test [14] has as its system K. pneumoniae A-15130. In words: MIC, tube dilution, Klebsiella pneumoniae A15130. Format: cell-based. The note with it: Klebsiella pneumoniae, A15130, K. pneumoniae A15130; overnight 37° C.; read-out: Minimum Inhibitory Concentration (M.I.C.).
Description: as §1

The test system of test [15] is Staph. aureus (Meth-Res) A-15097. Nature of the test: MIC, tube dilution, Staphylococcus aureus A15097 (Meth-Res). It is filed as cell-based. The note with it: Staphylococcus aureus, read-out: Minimum Inhibitory Concentration (M.I.C.), Staph. aureus A15097 (Meth-Res); overnight 37° C.
Description: as §1

In test [16] the test system is Str. pyogenes A-9604. Nature of the test: MIC, tube dilution, Streptococcus pyogenes A9604. The note with it: Streptococcus pyogenes, A9604, Str. pyogenes A9604; overnight 37° C., Nutrient Broth; read-out: Minimum Inhibitory Concentration (M.I.C.). Format: cell-based.
Description: as §1

Test [17] deals with Proteus rettgeri A21203. In words: MIC, tube dilution, Proteus rettgeri A21203. Format: cell-based. The note with it: Providencia rettgeri, overnight 37° C., read-out: Minimum Inhibitory Concentration (M.I.C.).
Description: as §1

Test [18] concerns Staph. aureus (Pen-Res) A-9606. Nature of the test: MIC, tube dilution, Staphylococcus aureus A9606 (Pen-Res). It is filed as cell-based. To be noted: Staphylococcus aureus, overnight 37° C.
Description: as §1

For test [19], the system named is Str. faecalis A-20688. Nature of the test: MIC, tube dilution, Streptococcus faecalis A20688. It is filed as cell-based. The note with it: Enterococcus faecalis, A20688, Str. faecalis A20688; overnight 37° C.; read-out: Minimum Inhibitory Concentration (M.I.C.).
Description: as §1

The subject of test [20] is Pr. morganii A-15153. Nature of the test: MIC, tube dilution, Proteus morganii A15153. Format: cell-based. To be noted: Morganella morganii, A15153, Proteus morganii A15153; overnight 37° C.; read-out: Minimum Inhibitory Concentration (M.I.C.).
Description: as §1

The mark [21] stands for this setting: A9716, Proteus vulgaris / Proteus mirabilis A9716, read-out: Minimum Inhibitory Concentration (M.I.C.).
[22] abbreviates: A21203, Proteus rettgeri A21203.
[23] abbreviates: A9716, read-out: Minimum Inhibitory Concentration (M.I.C.), Proteus vulgaris / Proteus mirabilis A9716.
Where [24] appears, read: read-out: Minimum Inhibitory Concentration (M.I.C.), Staph. aureus A9606 (Pen-Res).

For `CC(C)(C)CC1=C(C(=O)O)N2C(=O)CC2S1` (centres unmarked) [Preparation 23, 2-(2',2'-Dimethylpropyl)penem-3-carboxylate], the MIC is more than 125 µg/mL in [1]; 125 µg/mL (≈ 518 µM) in [2]; more than 125 µg/mL in test [3]; 4 µg/mL (≈ 16.6 µM) in test [4] (setting [21]); 125 µg/mL (≈ 518 µM) in [5]; 2 µg/mL (≈ 8.29 µM) in [6]. In addition, the MIC in test [7] was more than 63 µg/mL; in test [8], 0.25 µg/mL (≈ 1.04 µM); in test [9] it was 16 µg/mL (≈ 66.3 µM); in test [10], more than 125 µg/mL; in [11] (Enterobacter cloacae A9656), more than 125 µg/mL; in test [12], 0.25 µg/mL (≈ 1.04 µM). The MIC was more than 125 µg/mL in test [13]; 125 µg/mL (≈ 518 µM) in test [14]; 125 µg/mL (≈ 518 µM) in test [15]; 0.25 µg/mL (≈ 1.04 µM) in test [16]; 32 µg/mL (≈ 133 µM) in test [17] (setting [22]); 32 µg/mL (≈ 133 µM) in test [18] (Staph. aureus A9606 (Pen-Res), read-out: Minimum Inhibitory Concentration (M.I.C.)). Moreover, the MIC in test [19] was more than 125 µg/mL; in [20] it was 63 µg/mL (≈ 261 µM).

For `CCCCC1=C(C(=O)[O-])N2C(=O)C[C@H]2S1.[Na+]` [Preparation 24, Sodium 2-butylpenem-3-carboxylate], the MIC in [1] is more than 125 µg/mL; in [2], 32 µg/mL; in test [3], more than 125 µg/mL; in test [4] (setting [23]), 2 µg/mL; in test [5], 63 µg/mL; in test [6], 2 µg/mL. For the same molecule, the MIC in [7] was more than 63 µg/mL; in test [8], 0.13 µg/mL; in test [9] it was 16 µg/mL; in test [10] it was 125 µg/mL; in test [11] (Enterobacter cloacae A9656) it was 63 µg/mL; in test [12], 0.25 µg/mL. Besides, the MIC in test [13] was 125 µg/mL; in [14], 63 µg/mL; in test [15], 125 µg/mL; in [16], 1 µg/mL; in [17] (Proteus rettgeri A21203) it was 8 µg/mL; in test [18] (setting [24]), 4 µg/mL. In addition, the MIC in test [19] is 63 µg/mL; in test [20] it was 16 µg/mL.

Consider `CCOP(=O)(CCC1=C(C(=O)O)N2C(=O)CC2S1)OCC` (centres unmarked) [Preparation 25, 2'-(2'-Diethylphosphono-1'-ethyl)penem-3-carboxylic Acid], for which the MIC in test [1] came to 2 µg/mL (≈ 5.96 µM); in test [2], 63 µg/mL (≈ 188 µM); in test [3] it was 4 µg/mL (≈ 11.9 µM); in test [4] (setting [23]), 63 µg/mL (≈ 188 µM); in test [5] it was 16 µg/mL (≈ 47.7 µM); in test [6], 8 µg/mL (≈ 23.9 µM). The MIC was 8 µg/mL in test [7]; 1 µg/mL (≈ 2.98 µM) in [8]; 8 µg/mL (≈ 23.9 µM) in test [9]; 125 µg/mL (≈ 373 µM) in test [10]; 16 µg/mL (≈ 47.7 µM) in test [11] (Enterobacter cloacae A9656); 125 µg/mL (≈ 373 µM) in [12]. The MIC was more than 125 µg/mL in [13]; 125 µg/mL (≈ 373 µM) in [14]; 4 µg/mL (≈ 11.9 µM) in test [15]; more than 125 µg/mL in test [16]; 32 µg/mL (≈ 95.4 µM) in [17] (Proteus rettgeri A21203); 32 µg/mL (≈ 95.4 µM) in test [18] (setting [24]). Further, the MIC in test [19] worked out at 125 µg/mL (≈ 373 µM); in test [20], 63 µg/mL (≈ 188 µM).

Take `CSC(SC)C1=C(C(=O)O)N2C(=O)CC2S1` (centres unmarked) [Preparation 26, Sodium 2-(Dimethyldithiomethyl)penem-3-carboxylate]: the MIC in test [1] was more than 125 µg/mL; in test [2], 63 µg/mL; in test [3], more than 125 µg/mL; in test [4] (setting [21]), 32 µg/mL; in test [5], 63 µg/mL; in test [6] it was 32 µg/mL. The MIC was more than 63 µg/mL in test [7]; 4 µg/mL in test [8]; 32 µg/mL in test [9]; 125 µg/mL in test [10]; 63 µg/mL in test [11] (Enterobacter cloacae, A9656, Enterobacter cloacae A9656); 2 µg/mL in test [12]. Moreover, the MIC in [13] is 125 µg/mL; in [14] it was more than 125 µg/mL; in test [15] it was more than 125 µg/mL; in test [16], 4 µg/mL; in test [17] (setting [22]) it was 32 µg/mL; in [18] (setting [24]) it was 125 µg/mL. The MIC in test [19] is more than 125 µg/mL; in [20] it was 63 µg/mL.
